Converted amounts (≈) assume the structure as drawn.
Tests used:
[1] = species: Rattus norvegicus; experiment: (§1) Ester prodrugs: recovery of parent compound in rat urine; assay type: ADME, organism-based; details: in vivo
[2] = Solubility (phosphate buffered saline); assay type: physicochemical; details: read-out: S
[3] = Ester prodrugs: stability in buffer (pH 7); assay type: physicochemical
[4] = species: Rattus norvegicus; experiment: as §1; assay type: ADME, organism-based; details: in vivo; remark: listed apart in the source

| SMILES | Urinary recovery [1] [%] | solubility [2] [µM] | T1/2 [3] [days] | Urinary recovery [4] [%] |
| --- | --- | --- | --- | --- |
| COc1ncnc2c1ncn2[C@@H]1O[C@H](CO)[C@@H](OC(=O)c2ccccc2)[C@@H]1OC(=O)c1ccccc1 | 0.1 | 13 (≈ 6.38 µg/mL) |  |  |
| CCCC(=O)OC[C@H]1O[C@@H](n2cnc3c(OC)ncnc32)[C@@H](O)[C@@H]1OC(=O)CCC | 11.8 | 422 (≈ 178 µg/mL) |  |  |
| CCCCC(=O)O[C@H]1[C@H](OC(=O)CCCC)[C@@H](CO)O[C@H]1n1cnc2c(OC)ncnc21 | 9.1 | 694 (≈ 313 µg/mL) | 7.02 |  |
| CCCCCCC(=O)O[C@H]1[C@H](OC(=O)CCCCCC)[C@@H](CO)O[C@H]1n1cnc2c(OC)ncnc21 | 10.5 | 30 (≈ 15.2 µg/mL) |  |  |
| COc1ncnc2c1ncn2[C@@H]1O[C@H](COC(=O)c2ccccc2)[C@@H](O)[C@@H]1OC(=O)c1ccccc1 | 5.8 | < 5 |  |  |
| CCC(=O)OC[C@H]1O[C@@H](n2cnc3c(OC)ncnc32)[C@@H](O)[C@@H]1OC(=O)CC | 11 | 2390 (≈ 943 µg/mL) | 30.2 |  |
| COc1ncnc2c1ncn2[C@@H]1O[C@H](CO)[C@@H](OC(=O)Cc2ccccc2)[C@@H]1OC(=O)Cc1ccccc1 | 2.7 | 204 (≈ 106 µg/mL) |  |  |
| COc1ncnc2c1ncn2[C@@H]1O[C@H](CO)[C@@H](O)[C@@H]1O | 3.8 | 49800 (≈ 14100 µg/mL) |  | 25.9 |
| COc1ncnc2c1ncn2[C@@H]1O[C@H](CO)[C@@H](OC(=O)c2ccc(C)cc2)[C@@H]1OC(=O)c1ccc(C)cc1 | 0.2 | 5 (≈ 2.59 µg/mL) |  |  |
| COc1ncnc2c1ncn2[C@@H]1O[C@H](COS(=O)(=O)c2ccc(C)cc2)[C@@H](OS(=O)(=O)c2ccc(C)cc2)[C@@H]1OS(=O)(=O)c1ccc(C)cc1 | 3 | 5 (≈ 3.72 µg/mL) |  |  |
| COc1ncnc2c1ncn2[C@@H]1O[C@H](COC(=O)c2ccccc2)C(OC(=O)c2ccccc2)[C@@H]1O (single isomer, unassigned) | 4.3 | 33 (≈ 16.2 µg/mL) |  |  |
| CCCCC(=O)OC[C@H]1O[C@@H](n2cnc3c(OC)ncnc32)[C@@H](O)[C@@H]1OC(=O)CCCC | 12.8 | 78 (≈ 35.1 µg/mL) |  |  |
| CCCC(=O)O[C@H]1[C@H](OC(=O)CCC)[C@@H](CO)O[C@H]1n1cnc2c(OC)ncnc21 | 4.8 | 9600 (≈ 4060 µg/mL) | 13.1 |  |
| COc1ncnc2c1ncn2[C@@H]1O[C@H](COC(=O)c2ccc(Cl)cc2)[C@@H](OC(=O)c2ccc(Cl)cc2)[C@@H]1OC(=O)c1ccc(Cl)cc1 | 4.5 | < 5 |  |  |
| COc1ccc(C(=O)OC[C@H]2O[C@@H](n3cnc4c(OC)ncnc43)[C@@H](O)C2OC(=O)c2ccc(OC)cc2)cc1 (single isomer, unassigned) | 0.2 | 45 (≈ 24.8 µg/mL) |  |  |
| COc1ncnc2c1ncn2[C@@H]1O[C@H](CO)[C@@H](OC(C)=O)[C@@H]1OC(C)=O | 19.2 | 172000 (≈ 63000 µg/mL) | 19.1 |  |
| CCCCCCCC(=O)O[C@H]1[C@H](OC(=O)CCCCCCC)[C@@H](CO)O[C@H]1n1cnc2c(OC)ncnc21 | 12.6 | 36 (≈ 19.2 µg/mL) |  |  |
| COc1ncnc2c1ncn2[C@@H]1O[C@H](COC(=O)c2ccc(C)cc2)[C@@H](OC(=O)c2ccc(C)cc2)[C@@H]1OC(=O)c1ccc(C)cc1 | 5.6 | < 5 |  |  |
| CCCCC(=O)OC[C@H]1O[C@@H](n2cnc3c(OC)ncnc32)[C@@H](OC(=O)CCCC)[C@@H]1O | 15.3 | 1300 (≈ 586 µg/mL) | 51.6 |  |
| COc1ncnc2c1ncn2[C@@H]1O[C@H](COC(=O)C(C)C)[C@@H](OC(=O)C(C)C)[C@@H]1O | 17.7 | 428 (≈ 181 µg/mL) | 19.5 |  |
| CCCCCC(=O)O[C@H]1[C@H](OC(=O)CCCCC)[C@@H](CO)O[C@H]1n1cnc2c(OC)ncnc21 | 4.8 | 140 (≈ 67 µg/mL) |  |  |
| COc1ccc(C(=O)OC[C@H]2O[C@@H](n3cnc4c(OC)ncnc43)[C@@H](OC(=O)c3ccc(OC)cc3)[C@@H]2O)cc1 | 0.2 | 6 (≈ 3.3 µg/mL) |  |  |
| COc1ncnc2c1ncn2[C@@H]1O[C@H](COC(C)=O)[C@@H](OC(C)=O)[C@@H]1OC(C)=O | 8.3 | 81800 (≈ 33400 µg/mL) | 15.2 |  |

| SMILES | Urinary recovery [1] [%] | solubility [2] [µM] | T1/2 [3] [days] | Urinary recovery [4] [%] |
| --- | --- | --- | --- | --- |
| COc1ncnc2c1ncn2[C@@H]1O[C@H](COC(=O)C(C)C)[C@@H](OC(=O)C(C)C)[C@@H]1OC(=O)C(C)C | 2.1 | 141 (≈ 69.4 µg/mL) |  |  |
| COc1ncnc2c1ncn2[C@@H]1O[C@H](COC(=O)Cc2ccccc2)[C@@H](OC(=O)Cc2ccccc2)[C@@H]1OC(=O)Cc1ccccc1 | 4.1 | < 5 |  |  |
| COc1ncnc2c1ncn2[C@@H]1O[C@H](COC(=O)c2ccccc2)[C@@H](OC(=O)c2ccccc2)[C@@H]1OC(=O)c1ccccc1 | 0.9 | 8 (≈ 4.76 µg/mL) |  |  |
| COc1ccc(C(=O)O[C@H]2[C@H](OC(=O)c3ccc(OC)cc3)[C@@H](CO)O[C@H]2n2cnc3c(OC)ncnc32)cc1 | 0.2 | 5 (≈ 2.75 µg/mL) |  |  |
| COc1ccc(C(=O)OC[C@H]2O[C@@H](n3cnc4c(OC)ncnc43)[C@@H](OC(=O)c3ccc(OC)cc3)[C@@H]2OC(=O)c2ccc(OC)cc2)cc1 | 4.1 | < 5 |  |  |
| COc1ncnc2c1ncn2[C@@H]1O[C@H](COC(C)=O)[C@@H](OC(C)=O)[C@@H]1O | 16.3 | 12300 (≈ 4510 µg/mL) | 30.6 |  |
| CCCCC(=O)OC[C@H]1O[C@@H](n2cnc3c(OC)ncnc32)[C@@H](OC(=O)CCCC)[C@@H]1OC(=O)CCCC | 2.2 | 21 (≈ 11.2 µg/mL) |  |  |
| COc1ncnc2c1ncn2[C@@H]1O[C@H](CO)[C@@H](OC(=O)C(C)(C)C)[C@@H]1OC(=O)C(C)(C)C | 1.6 | 640 (≈ 288 µg/mL) | 72.7 |  |
| COc1ncnc2c1ncn2[C@@H]1O[C@H](COC(=O)C(C)(C)C)[C@@H](OC(=O)C(C)(C)C)[C@@H]1OC(=O)C(C)(C)C | 5.4 | 14 (≈ 7.48 µg/mL) |  |  |
| COc1ncnc2c1ncn2[C@@H]1O[C@H](CO)[C@@H](OC(=O)COc2ccccc2)[C@@H]1OC(=O)COc1ccccc1 | 7.6 | 67 (≈ 36.9 µg/mL) |  |  |
| CCC(=O)OC[C@H]1O[C@@H](n2cnc3c(OC)ncnc32)[C@@H](OC(=O)CC)[C@@H]1OC(=O)CC | 0.8 | 3550 (≈ 1600 µg/mL) | 127 |  |
| COc1ncnc2c1ncn2[C@@H]1O[C@H](COC(=O)Cc2ccccc2)[C@@H](OC(=O)Cc2ccccc2)[C@@H]1O | 1.5 | < 5 |  |  |
| CCC(=O)O[C@H]1[C@H](OC(=O)CC)[C@@H](CO)O[C@H]1n1cnc2c(OC)ncnc21 | 8.7 | 23500 (≈ 9270 µg/mL) | 525 |  |
| CCCC(=O)OC[C@H]1O[C@@H](n2cnc3c(OC)ncnc32)[C@@H](OC(=O)CCC)[C@@H]1OC(=O)CCC | 0.7 | 102 (≈ 50.2 µg/mL) |  |  |
| COc1ncnc2c1ncn2[C@@H]1O[C@H](CO)[C@@H](OC(=O)C(C)C)[C@@H]1OC(=O)C(C)C | 2.3 | 3300 (≈ 1390 µg/mL) | 28.9 |  |
| COc1ncnc2c1ncn2[C@@H]1O[C@H](COC(C)=O)[C@@H](O)[C@@H]1OC(C)=O | 10.6 | 7100 (≈ 2600 µg/mL) | 22.5 |  |
| COc1ncnc2c1ncn2[C@@H]1O[C@H](COC(=O)COc2ccccc2)[C@@H](OC(=O)COc2ccccc2)[C@@H]1O | 3.8 | 58 (≈ 31.9 µg/mL) |  |  |
| COc1ncnc2c1ncn2[C@@H]1O[C@H](COC(=O)C(C)(C)C)[C@@H](OC(=O)C(C)(C)C)[C@@H]1O | 1.2 | 32 (≈ 14.4 µg/mL) |  |  |
| COc1ncnc2c1ncn2[C@@H]1O[C@H](COC(=O)COc2ccccc2)[C@@H](OC(=O)COc2ccccc2)[C@@H]1OC(=O)COc1ccccc1 | 4.6 | 22 (≈ 15.1 µg/mL) |  |  |
| COc1ncnc2c1ncn2[C@@H]1O[C@H](COC(=O)C(C)(C)C)[C@@H](O)[C@@H]1OC(=O)C(C)(C)C | 15.7 | 1350 (≈ 608 µg/mL) | 178 |  |
| COc1ncnc2c1ncn2[C@@H]1O[C@H](COC(=O)C(C)C)[C@@H](O)[C@@H]1OC(=O)C(C)C | 4.2 | 9110 (≈ 3850 µg/mL) | 53.6 |  |
| COc1ncnc2c1ncn2[C@@H]1O[C@H](COS(C)(=O)=O)[C@@H](OS(C)(=O)=O)[C@@H]1OS(C)(=O)=O | 4.4 | 3220 (≈ 1660 µg/mL) | > 70 |  |
